# Assay results reported in patent publication US9359371B2, “Bicyclic substituted pyrimidine compounds” (Xuanzhu Pharma Co., Ltd., priority 2012, dated 2016).
# Tests used:
# [1] = Pharmacokinetics (PK) in SD rats; assay type: in vivo; settings: rat, 1 mg/kg
# [2] = target: hERG channel (Homo sapiens (Human), UniProt Q12809); experiment: hERG potassium channel whole-cell patch clamp on CHO-K1 cell line
# Text: Experiment 8: Detection of Inhibitory Effect of the Compounds of the Present Invention on hERG Potassium Channel by the Patch Clamp Method
# Rapidly activated human delayed rectifying outward potassium current (IKr) is mainly mediated by hERG ion channel and is involved in repolarization of human cardiac muscle cell. Clinically, blocking of the current by a drug is the main cause of QT interval prolongation syndrome, acute arrhythmia and even sudden death. The main purpose of the experiment is to test the blocking effect of the compounds of the present invention on hERG channel, and to determine the half maximal inhibitory concentration (IC50) of the compounds.
# The experiment mainly included: (1) recording hERG current by patch clamp technique on CHO-K1 cell line which stably expressed hERG channel; (2) calculating the Inhibition rate of each concentration according to hERG tail current; (3) testing each compound at 5 concentrations to calculate IC50; (4) testing 2 cells at each concentration; (5) a positive control.
# The structures and synthesis of Compound 88 (WO-88) and Compound 93 (WO-93) as disclosed in WO200119802A were described in Example 55 and Example 56.
# Drug for positive control: Amitriptyline hydrochloride (Sigma-Aldrich, an international standard blocker for hERG channel)
# Pippette Solution (in mM): KCl 120, KOH 31.25, CaCl2 5.374, MgCl2 1.75, Ethylene glycol-bis(β-aminoethyl ether)-N,N,N′,N′-tetraacetic acid (EGTA) 10, HEPES 10, Na2-ATP 4, adjusted to a pH of 7.2 with 1N potassium hydroxide; adjusted to an osmotic pressure of 280-290 mOsm; preserved at −20° C. after filtration.
# Preparation of compounds: Some of the compounds of the present invention and Amitriptyline hydrochloride as the positive control drug were separately dissolved in 100% DMSO (Merck, 61850125001730), then prepared into stock solutions of 30 mM. Before the experiment, the above stock solutions were diluted with DMSO to a concentration of 1000-fold of the experimental concentration. Then the diluted solutions were further diluted with extracellular solution by 1:1000 to the required experimental concentration. The final concentration of DMSO in the extracellular solution was kept as 0.1%.
# Stable cell line CHO-hERG was purchased from AVIVA Company. The hERG current on the cell line was recorded. For the purpose of quality control, the smallest seal resistance was no less than 500 MΩ, and the hERG current was no less than 0.4 nA.
# The hERG current was recorded by a whole-cell patch clamp technique. Cell suspension was added into a 35-mm culture dish. The culture dish was placed on the objective table of an inverted microscope. Upon cell attachment, perfusion was conducted with the extracellular solution at a flow rate of 1-2 mL/min.
# Glass microelectrode with the pipette tip resistance of 2-5 MΩ was controlled by a microelectrode puller via a two-step process. After the whole-cell record was set up, the clamp potential was kept at −80 mV. The cell was depolarized to +60 mV by applying a voltage stimulus, and then repolarized to −50 mV to obtain the hERG tail current. Recordation was conducted after the current was stable. The extracellular perfusion was started from the lowest concentration, with 5-10 min for each concentration until the current was stable, and then conducted with the next concentration.
# Stimulus payment and signal collection were performed by A/D-D/A conversion using Digidata 1440 (Molecular Devices) and pCLAMP software (Version 10.2, Molecular Devices). Signal amplification was performed on a patch clamp amplifier (Multiclamp 700B, Molecular Devices), with a filter of 1 KHz. Further data analysis and curve fitting were conducted by Clampfit (version 10.2, Molecular Devices) and Prism. The data were presented as mean value±standard deviation.
# In the process of data analysis, the peak value and the baseline of the tail current were corrected when determining the blocking effect on hERG.
# [3] = target: PDE-11 (Homo sapiens (Human), UniProt Q9HCR9); experiment: Caliper Mobility-Shift PDE-11 Assay; assay type: biochemical; settings: Table 4; maximum final concentration 10 μM
# Procedure: Experiment 4: Measurement of Pharmacological Activity on PDE-11 Enzyme In Vitro
# Method: enzyme assay, Caliper Mobility-Shift PDE-11 Assay
# The test compound was accurately weighed, dissolved in DMSO, mixed thoroughly and formulated into 10 mM. The above stock solution was diluted to a concentration of 0.5 mM with DMSO, and then was gradiently diluted by a dilution factor of 3.162, resulting in 11 concentrations in total.
# To a 96-well plate, 20 μL of 10 μM FL-cGMP as the substrate was added; then 1 μL solution of the compound in DMSO or DMSO solution without compound was added; and then 29 μL of 0.28 ng/μL PDE-11 enzyme buffer (100 mM Hepes pH 7.5, 5 mM MgCl2, 0.002% Brij-35) was added. The maximum final concentration of the compound was 10 μM. The plate was incubated at 30° C. for 1 h, and 20 μL of 70 μM EDTA was then added to stop the reaction. 26 μL of solution of each well was transferred to a 384-well plate. The conversion was read on a EZ reader II. The Inhibition rate was calculated by the formula below, and used to calculate IC50 by Prism 5.0 Inhibition rate=[Conversion (ZPE)−Conversion (sample)]×100/[Conversion (ZPE)−Conversion (HPE)]
# Note: HPE: control without enzyme; ZPE: control without compound
# [4] = SD, plasma, po, intragastric administration
# [5] = SD, plasma, intravenous injection
# Sequence of hERG channel (Q12809 whole entry): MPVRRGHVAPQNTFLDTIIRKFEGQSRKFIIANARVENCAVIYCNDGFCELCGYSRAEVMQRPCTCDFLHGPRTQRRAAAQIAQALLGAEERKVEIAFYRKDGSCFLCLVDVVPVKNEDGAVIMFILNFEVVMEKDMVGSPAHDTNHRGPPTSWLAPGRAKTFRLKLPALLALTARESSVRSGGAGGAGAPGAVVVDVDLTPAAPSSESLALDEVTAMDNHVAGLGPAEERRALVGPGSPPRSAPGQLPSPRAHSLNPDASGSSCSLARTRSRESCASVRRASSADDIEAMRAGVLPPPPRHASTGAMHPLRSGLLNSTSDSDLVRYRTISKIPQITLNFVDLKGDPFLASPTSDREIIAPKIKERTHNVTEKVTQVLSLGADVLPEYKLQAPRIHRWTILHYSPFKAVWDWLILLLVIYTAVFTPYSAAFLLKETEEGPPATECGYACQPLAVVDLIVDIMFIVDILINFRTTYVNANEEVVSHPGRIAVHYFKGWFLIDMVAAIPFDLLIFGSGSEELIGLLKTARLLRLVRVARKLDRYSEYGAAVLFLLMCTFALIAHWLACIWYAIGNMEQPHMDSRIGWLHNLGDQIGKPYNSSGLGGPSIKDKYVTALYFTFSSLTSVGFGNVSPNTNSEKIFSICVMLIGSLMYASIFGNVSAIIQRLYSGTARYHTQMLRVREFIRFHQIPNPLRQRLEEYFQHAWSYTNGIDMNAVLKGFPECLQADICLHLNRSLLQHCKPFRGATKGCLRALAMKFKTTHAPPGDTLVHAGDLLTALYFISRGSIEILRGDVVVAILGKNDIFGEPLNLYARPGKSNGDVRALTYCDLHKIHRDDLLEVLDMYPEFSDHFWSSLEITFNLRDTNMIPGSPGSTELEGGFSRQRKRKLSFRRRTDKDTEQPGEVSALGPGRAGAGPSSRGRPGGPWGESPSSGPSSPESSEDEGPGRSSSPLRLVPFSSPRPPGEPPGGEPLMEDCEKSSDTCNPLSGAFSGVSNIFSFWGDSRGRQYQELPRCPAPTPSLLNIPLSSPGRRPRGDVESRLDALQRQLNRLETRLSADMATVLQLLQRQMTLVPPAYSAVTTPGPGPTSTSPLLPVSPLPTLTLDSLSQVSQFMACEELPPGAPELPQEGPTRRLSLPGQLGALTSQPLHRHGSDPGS
# Sequence of PDE-11 (Q9HCR9 whole entry): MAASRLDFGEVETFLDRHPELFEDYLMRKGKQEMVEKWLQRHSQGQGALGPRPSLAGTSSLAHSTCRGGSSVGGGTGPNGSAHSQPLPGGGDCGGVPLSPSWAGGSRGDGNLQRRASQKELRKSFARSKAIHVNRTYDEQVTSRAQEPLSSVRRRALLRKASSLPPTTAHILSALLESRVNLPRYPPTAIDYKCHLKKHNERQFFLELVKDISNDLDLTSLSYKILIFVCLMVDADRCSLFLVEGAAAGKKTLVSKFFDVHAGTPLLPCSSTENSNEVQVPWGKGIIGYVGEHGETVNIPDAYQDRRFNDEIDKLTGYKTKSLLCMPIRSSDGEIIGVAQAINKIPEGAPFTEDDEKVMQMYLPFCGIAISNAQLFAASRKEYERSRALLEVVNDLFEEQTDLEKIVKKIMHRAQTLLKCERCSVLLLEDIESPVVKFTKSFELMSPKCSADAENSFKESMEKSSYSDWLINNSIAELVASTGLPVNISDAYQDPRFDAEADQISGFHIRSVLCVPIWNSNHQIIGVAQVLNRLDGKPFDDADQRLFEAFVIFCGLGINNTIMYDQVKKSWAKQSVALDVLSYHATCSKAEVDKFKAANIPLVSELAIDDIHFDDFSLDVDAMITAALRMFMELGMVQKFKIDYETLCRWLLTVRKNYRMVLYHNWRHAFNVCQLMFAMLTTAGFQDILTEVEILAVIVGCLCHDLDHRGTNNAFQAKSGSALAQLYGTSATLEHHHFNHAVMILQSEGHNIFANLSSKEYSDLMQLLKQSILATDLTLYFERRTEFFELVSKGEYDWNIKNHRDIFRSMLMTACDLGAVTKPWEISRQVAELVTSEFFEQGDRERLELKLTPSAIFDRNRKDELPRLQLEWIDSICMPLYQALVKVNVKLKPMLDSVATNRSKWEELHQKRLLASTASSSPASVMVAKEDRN
compound,measurement,setting,value
"COc1ccc(CNc2nc(N3CC4CC4C3)ncc2C(=O)N[C@H]2CC[C@H](O)CC2)cc1Cl (stereo partly drawn) [Compound 11, 2-(3-azabicyclo[3.1.0]hexan-3-yl)-4-((3-chloro-4-methoxybenzyl)amino)-N-(trans-4-hydroxycyclohexyl)pyrimidine-5-formamide]",AUC(0-inf),[1]; [4],604 ng·h/mL
same,Cmax,[1]; [4],133 ng/mL
same,Tmax,[1]; [4],1 h
same,half-life,[1]; [4],2.03 h
same,bioavailability,"[1]; SD, plasma, po, intragastric administration, read-out: F % (absolute bioavailability)",70.4%
same,AUC(0-inf),[1]; [5],858 ng·h/mL
same,half-life,[1]; [5],2.4 h
same,AUCinf,[1]; intragastric administration,higher exposure quality (AUC)
same,F % (absolute bioavailability),[1]; intragastric administration,higher exposure quality (AUC) and bioavailability than Compound WO-88
same,AUCinf,[1]; intravenous injection,higher exposure quality (AUC)
same,Cl_obs,[1]; intravenous injection,19.7 mL/min/kg
same,T1/2,[1]; intravenous injection,longer half-life
same,Vss_obs,[1]; intravenous injection,3.44 L/kg
same,IC50,[2],> 30 µM
same,inhibitory effect on hERG channel (in words),"[2]; human, CHO-K1 cells stably expressing hERG channel, pH 7.4","none of Compound 3, 11 and 50 of the present invention had a significant inhibitory effect"
same,IC50,[3],> 10 µM
